From article PMC9975698, “Hyperoside alleviates toxicity of β-amyloid via endoplasmic reticulum-mitochondrial calcium signal transduction cascade in APP/PS1 double transgenic Alzheimer's disease mice” (Redox Biology, 2023)
Like-named read-outs stand apart in the source and are kept apart here.

What was measured:
Aβ (1–42) = target: T1, Aβ (1–42) (Homo sapiens, UniProt P05067); experiment: Thioflavin T (ThT) fluorescence assay of Aβ fibrillation; format: biochemical; conditions: Aβ 30 μM, 37 °C, day 1–7
T1 construct: purchased DGpeptites, Hangzhou, CHINA
Description: HYP was incubated with Aβ (30 μM) for 7 days at 37 °C at a final volume of 100 μL. ThT fluorescence measurement was measured for every 24 h. ThT (20 μM) dissolved in PBS (pH = 7.4) was added in a black 96-well plate with 10 μL of aggregated Aβ (with or without HYP) and incubated for 1 h. Fluorescence measurement was then performed using a microplate reader (SpectraMax Paradigm, Molecular Devices, CA, USA) with an excitation wavelength of 450 nm and an emission wavelength of 490 nm. Background fluorescence was measured in control samples containing PBS and 0.02 % DMSO.

APP = experiment: Real-time quantitative PCR of APP mRNA in HT22 cells; format: cell-based; conditions: HT22 cells after HYP treatment
Description: RNA was extracted from the HT22 cell using FavorPrep™ Blood/Cultured Cell Total RNA Purification Mini Kit (Favorgen Biotech Corp.). RNA concentration was determined using the NanoDrop 2000c Spectrophotometer (Thermo Scientific). 1 μg of total RNA was used to reverse transcribe to its corresponding cDNA by using the Transcriptor Universal cDNA Master mix (Roche, USA). Quantitative PCR was then performed with the addition of PowerUp™ SYBR® Green Master Mix (Applied Biosystems) using the ViiA™ 7 Real-Time PCR System (Applied Biosystems). Specific primers (Tech Dragon Ltd., Hong Kong) were designed by employing ThermoFisher Scientific's online OligoPerfect™ Designer software and then verified with NCBI's Primer‐BLAST software to confirm specific recognition of the target genes. Gene expression levels were normalized to actin (control) and analyzed using the ΔΔCT method. Three independent experiments with three replicates per group were analyzed for each primer.

[1] = Pharmacokinetics in brain after IV or IN administration; format: in vivo; conditions: 20 mg/kg, mice; for Tmax / k el / half-life: mouse, brain; for k el: read-out: Brain Ke (converted); for half-life: read-out: Brain t1/2 (converted)
Description: After tail vein injection or nasal administration, blood was collected at 5, 15 and 30 min, 1, 2, 4, 8, 12, 24, 48, 72, 120 and 168 h, for immediate centrifugation at 14,000 rpm for 5 min. The serum was harvested and stored at −20 °C until further processing. Brain tissue was collected and was thoroughly rinsed in saline to eliminate blood and blotted dry with filter paper. Each tissue sample was homogenized in saline (1:5, w/v) and stored at −20 °C until analysis. 50 μL of serum or 100 μL of brain tissue was put in a 1.5 mL EP tube, followed by the addition of 20 μL of internal standard solution (10 μM ISO). The protein was precipitated with 1 mL of ethyl acetate, vortexed for 5 min and centrifuged at 20,000 g (4 °C and 10 min). The supernatant solution was nitrogen blown to dry and re-suspended with 100 μL of 50% acetonitrile for centrifugation again. The supernatant was taken for analysis by using LC-MS/MS. HYP content was quantified using UHPLC-MS/MS system, which includes Agilent 1290 Infinity UHPLC, and Agilent 6460 Triple Quadrupole, equipped with an electrospray ionization interface used to generate positive ions for the determination of HYP. The compounds were analyzed by using the Agilent Zorbax Eclipse Plus C-18 column with a particle size of […] (flow rate: 0.35 mL/min). The mobile phase was set as follows: mobile phase A (0.1% formic acid in water) and mobile phase B (0.1% formic acid in ACN): 0–3 min, 10–30% B; 3–4 min, 70% B; 4–5 min, 30–70% B; 5–6 min, 70-10% B. The column and auto-sampler temperature were maintained at 30 °C and 4 °C, respectively. Data were analyzed by using Agilent MassHunter Workstation software B.01.03. The gas temperature was set at 300 °C with a flow rate of 11 L/min. Gases were set at 30 psi for the nebulizer, capillary, at 4000 V. For the HYP, the fragment was 170. The collision energy was set at 30; The mass transitions were as follows based on multiple reaction monitoring: m/z 464.38 → 299.9. For the Isorhamnetin (ISO), the fragment was 150. The collision energy was set at 30; The mass transitions were as follows based on multiple reaction monitoring: m/z 315.4 → 300.1, The measurements of HYP were done using the standard and linear least-squares regression curve.

APP/PS1 mice = experiment: Thioflavin S staining of Aβ plaques in brain; format: in vivo; conditions: cortex and hippocampus, HYP 20/40/80 mg/kg nasal, 8 weeks
Description: All animal care and experimental procedures were performed in accordance with the “Institutional Animal Care and User Committee Guidelines” of the Macau University of Science and Technology. APP/PSEN1 (APP/PS1) mice (N000175) were purchased from the Nanjing Institute of Biomedical Sciences, Nanjing University, China, weighing 25 ± 5 g. The animals were housed in a temperature-controlled room with a 12 h light/dark cycle and given ad libitum food and water. Male mice were randomly divided into the following 6 experimental groups. (a) wild-type group (n = 6), (b) APP/PS1 group (n = 6), (c) HYP (20 mg/kg group) (n = 7), (d) HYP (40 mg/kg) group (n = 8), (e) HYP (80 mg/kg) group (n = 8) and (f) memantine (MEM) (10 mg/kg) positive control group (n = 8). HYP was dissolved in the solvent containing 10% DMSO, 40% PEG300 and 5% Tween-80 in PBS, and administrated via nasal injection for every 3 days with a volume of 0.5 μL/g of body weight for 8 consecutive weeks. Paraffin sections of the brain were washed three times with PBS after dewaxing and then stained with THS dissolved in 50% alcohol for 7 min, followed by 50% alcohol solution for washing. Sections were then air-dried and sealed with neutral gel for microscopic observation. Images were captured by API DeltaVision Live‐cell Imaging System (Applied Precision Inc., DC, USA).

HT22 cells = experiment: LIVE/DEAD cells analysis (calcein AM / PI); format: cell-based; conditions: aggregated Aβ-treated HT22, HYP co-treatment 24 h
Description: According to the manufacturer's instructions, cell death was detected by Calcein AM Cell Viability Assay Kit (Beyotime, Shanghai, CHINA). 5 × 10^4 HT22 cells per well were seeded in 24-well plates, and HT22 was treated with HYP (20–80 μM) or PBS for 24 h. After overnight incubation, treated cells were stained with Calcein/Propidium Iodide (PI) dye for 20 min. Cells images were then visualized and captured by using Olympus IX71 fluorescence microscope with FITC and TRITC filters consecutively. Green and red fluorescence images were merged and analyzed with cellSens Standard 1.8.1 software. The percentage of cell death was quantified by dividing the number of dead cells (red fluorescence) by the total number of cells.

T1 sequence (P05067 672-713 limits assumed): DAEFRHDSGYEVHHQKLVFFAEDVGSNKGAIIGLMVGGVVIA

SMILES: O=c1c(O[C@@H]2O[C@H](CO)[C@H](O)[C@H](O)[C@H]2O)c(-c2ccc(O)c(O)c2)oc2cc(O)cc(O)c12 [HYP, Quercetin-3-O-β-D-galactopyranoside]
- Aβ fibrillation and aggregation (ThT fluorescence) (Aβ (1–42)): reduced Aβ fibrillation and aggregation
- mRNA transcriptional level of APP (APP): no significant effect
- Brain Cmax ([1]; IN): 12.76 ± 1.56 ng/m
- Brain F (AUCIN/AUCIV ratio) ([1]; IN): 603.72%
- Brain Cmax ([1]; IV): 12.82 ± 0.40 ng/mL
- Tmax ([1]; inhaled or intranasal, IN): 1 h
- k el ([1]; inhaled or intranasal, IN): 5.56e-06 s⁻¹
- half-life ([1]; inhaled or intranasal, IN): 70.1 ± 5.04 h
- Tmax ([1]; IV): 2 h
- k el ([1]; IV): 1.94e-05 s⁻¹
- half-life ([1]; IV): 10.5 ± 1.63 h
- level of Aβ plaques (ThS) (APP/PS1 mice): reduced the level of Aβ plaques in the cortex and hippocampus of APP/PS1 mice in a dose-dependent manner
- cell viability by calcein AM / PI staining (HT22 cells): increase of cell viability
